Tests used:
[1] = refractive index (Na D-line) (dimensionless); xn = mol fraction of the nth substance listed; details: 101 kPa, Liquid
[2] = xn = mol fraction of the nth substance listed; details: 101 kPa, Liquid; for speed of sound: Pulse-echo method

CCCCCCC(C)O (stereo not drawn) [2-octanol] + Clc1ccccc1Cl
Details | mass density, [2] [kg/m3] | refractive index, [1] | speed of sound, [2] [m/s] | viscosity, [2] [mPa·s]
298.15 K, x2 = 0.0721 | 841.72 | 1.4308 | 1302 | 5.353
298.15 K, x2 = 0.1124 | 856.33 | 1.4352 | 1299.7 | 4.742
298.15 K, x2 = 0.1868 | 884.26 | 1.443 | 1295.1 | 3.839
298.15 K, x2 = 0.2615 | 913.56 | 1.4507 | 1291 | 3.163
298.15 K, x2 = 0.3223 | 938.42 | 1.4569 | 1287.8 | 2.721
298.15 K, x2 = 0.3758 | 961.09 | 1.4624 | 1285.1 | 2.414
298.15 K, x2 = 0.4495 | 993.6 | 1.4698 | 1281.8 | 2.086
298.15 K, x2 = 0.512 | 1022.45 | 1.4763 | 1279.1 | 1.873
298.15 K, x2 = 0.5923 | 1061.35 | 1.4848 | 1276.1 | 1.668
298.15 K, x2 = 0.6557 | 1093.66 | 1.492 | 1274.5 | 1.551
298.15 K, x2 = 0.7312 | 1134.18 | 1.5014 | 1273.2 | 1.406
298.15 K, x2 = 0.797 | 1171.44 | 1.5103 | 1273 | 1.293
298.15 K, x2 = 0.8672 | 1213.47 | 1.521 | 1274.4 | 1.283
298.15 K, x2 = 0.9481 | 1265.11 | 1.5353 | 1277.6 | 1.308
303.15 K, x2 = 0.0721 | 837.79 | 1.4293 | 1283.9 | 4.223
303.15 K, x2 = 0.1124 | 852.34 | 1.4336 | 1281.6 | 3.749
303.15 K, x2 = 0.1868 | 880.15 | 1.4416 | 1277.6 | 3.115
303.15 K, x2 = 0.2615 | 909.35 | 1.4492 | 1273.5 | 2.648
303.15 K, x2 = 0.3223 | 934.11 | 1.4552 | 1270.5 | 2.342
303.15 K, x2 = 0.3758 | 956.68 | 1.4604 | 1267.9 | 2.15
303.15 K, x2 = 0.4495 | 989.05 | 1.4678 | 1264.9 | 1.942
303.15 K, x2 = 0.512 | 1017.76 | 1.4741 | 1262.2 | 1.772
303.15 K, x2 = 0.5923 | 1056.48 | 1.4828 | 1259.6 | 1.613
303.15 K, x2 = 0.6557 | 1088.63 | 1.4902 | 1258 | 1.473
303.15 K, x2 = 0.7312 | 1128.95 | 1.4997 | 1257 | 1.34
303.15 K, x2 = 0.797 | 1166.05 | 1.509 | 1256.7 | 1.253
303.15 K, x2 = 0.8672 | 1207.93 | 1.52 | 1257.9 | 1.201
303.15 K, x2 = 0.9481 | 1259.5 | 1.5342 | 1261.6 | 1.223
308.15 K, x2 = 0.0721 | 833.8 | 1.4274 | 1266.6 | 3.524
308.15 K, x2 = 0.1124 | 848.27 | 1.4319 | 1264 | 3.227
308.15 K, x2 = 0.1868 | 875.95 | 1.4399 | 1260.1 | 2.763
308.15 K, x2 = 0.2615 | 905.03 | 1.4476 | 1256.2 | 2.38
308.15 K, x2 = 0.3223 | 929.69 | 1.4534 | 1253.3 | 2.121
308.15 K, x2 = 0.3758 | 952.17 | 1.4587 | 1250.8 | 1.933
308.15 K, x2 = 0.4495 | 984.42 | 1.4658 | 1247.6 | 1.7
308.15 K, x2 = 0.512 | 1013.02 | 1.4718 | 1245.4 | 1.532
308.15 K, x2 = 0.5923 | 1051.57 | 1.48 | 1242.9 | 1.362
308.15 K, x2 = 0.6557 | 1083.59 | 1.4873 | 1241.5 | 1.243
308.15 K, x2 = 0.7312 | 1123.75 | 1.4967 | 1240.5 | 1.157
308.15 K, x2 = 0.797 | 1160.72 | 1.5059 | 1240.4 | 1.132
308.15 K, x2 = 0.8672 | 1202.46 | 1.5168 | 1241.5 | 1.133
308.15 K, x2 = 0.9481 | 1253.92 | 1.531 | 1243.9 | 1.14

Reference: the NIST ThermoML archive (doi:10.1007/s10765-011-1087-7)
